One test concerns cytochrome C. The following applies: Jurkat T cells, 50 μM, 2 to 4 hours.
The next test concerns caspase-3. The test is described as follows: Cell-free caspase-3 activity assay on extracts of treated Jurkat T cells. In kind it is cell-based, human. The method, then:
Briefly, a prepared protein extract (20 μg) is incubated in a buffer containing 50 mM Tris/pH 8.0 along with each respective caspase substrate at 20 μM in a 96 well plate. The reaction mixture is incubated at 37° C. for 2 h.
A library of β-lactam analogs was screened for their ability to induce apoptosis. The screening procedure is accomplished by treating human Jurkat T cells with each compound at 50 μM for 8 hours. This is followed by preparation of cell lysates and measurement of apoptosis-specific caspase-3 activation (by cell-free caspase-3 activity assay) and PARP cleavage (by Western blotting).

For test [1], the system named is WI-38 cells. The conditions noted are these: 50 μM. Here is the method:
(§1) (FIG. 19A) MTT assay. (FIG. 19B) Cell-free caspase-9 activity assay. A protein extract (20 μg) is incubated with 20 μM Ac-LEHD-AFC (the specific caspase-9 substrate) in a 96-well plate at 37° C. for 2 h. After incubation, the liberated florescent AFC groups are measured by Wallac Victor 1420 Multilabel counter with 405/535 nm filters. […] Both intact and active forms of caspase-3 are indicated. […] Both detached and attached populations of Va-13 or WI-38 cells are collected, and used for nuclear staining assay with DNA staining dye Hoechst 33342.
To assay nuclear morphology, both the detached or remaining attached solid tumor cells were washed with PBS, fixed with 70% ethanol for 1 hour, and stained with Hoechst 33342 (50 μM) for 30 minutes. The nuclear morphology of cells was visualized by a fluorescence microscope.

Another test has as its system Jurkat T cells. The following applies: 50 μM, cited from earlier work.
In the next test the test system is p38 MAP kinase. The test is described as follows: p38 phosphorylation, Western blot, Jurkat T cells. The format is cell-based, human. The source says: It has been shown that multiple stimuli including DNA damaging agents induce apoptosis via activation of p38 MAP kinase (Kummer J L, et al., 1997, Apoptosis induced by withdrawal of trophic factors is mediated by p38 mitogen-activated protein kinase. J. Biol Chem 272:20490-4; Sanchez-Prieto R, et al., 2000, A role for the p38 mitogen-acitvated protein kinase pathway in the transcriptional activation of p53 on genotoxic stress by chemotherapeutic agents. Cancer Res 60:2464-72). […] The levels of Tyr-182 phosphorylated p38 protein were increased by 3-fold at 2 h and reached its maximum (˜9-fold) by 6 h (FIG. 8A). In has been shown that dual phosphorylation of p38 on Tyr-182 and Thr-180 activates this kinase (Raingeaud J, et al., 1995, Pro-inflammatory cytokines and environmental stress cause p38 mitogen-activated protein kinase activation by dual phosphorylation on tyrosine and threonine. J Biol Chem 270:7420-6). […] Therefore, lactam 1-induced DNA damage triggered activation of p38 before S population accumulation and apoptosis induction.
(In western blotting, separated proteins are transferred to a membrane and probed.)

In test [2] the test system is WI-38 cells. The following applies: 50 μM. Here is the method: as §1
(§2) An MTT assay was performed in a 96-well plate, which measures cellular mitochondrial function and thereby cytotoxicity.
The source holds these as a separate data set.

Another test has as its system VA-13 cells. The following applies: 50 μM. The method, then: as §1, §2

Structures are written as SMILES. Read-outs that look alike come from different tables or passages of the source.

Description for cytochrome C: At each time point, cells were washed twice with PBS, resuspended in a hypotonic buffer containing 20 mM HEPES (pH 7.5), 1.5 mM MgCl2, 5 mM KCl and 1 mM DTT, and incubated on ice for 10 min. The cells are dounced 30 times, and the lysate is centrifuged at 2,000×g for 10 min. The supernatant is collected and centrifuged again at the same condition. The resulting supernatant is then centrifuged at 20,500×g for 30 min, followed by collection of both the supernatant (cytosol) and pellet fractions. The pellet is washed twice with a buffer containing 210 mM mannitol, 70 mM sucrose, 5 mM Tris-HCl (pH 7.5) and 1 mM EDTA, and resuspended in the lysis buffer as the mitochondria fraction.

As to `COC1C(=O)N(SC)C1c1ccccc1Cl` (racemic) [lactam 1], in the test with cytochrome C, the “levels of cytosolic cytochrome C” value was “significantly increased”. For the same compound, the “levels of mitochondrial cytochrome C” value in the test with cytochrome C is reported as “decreased”. Moreover, the “time at which cell-free caspase-3 activity was first observed” value in the test on caspase-3 (50 μM) stood at 4 h. Moreover, the caspase-3 activation result in the test on caspase-3 (50 μM, 8 hours) is “greatest potency”. Also, the “increase of caspase-3 levels over untreated cells” value in the test with caspase-3 (8 hours, 20 μM) is 2 fold; in the test with caspase-3 (8 hours, 30 μM) it was 3 fold; with caspase-3 (8 hours, 40 μM), 5 fold; in the test on caspase-3 (8 hours, 50 μM), 11 fold. For the same compound, the “nuclear morphology (Hoechst 33342)” value in the test with WI-38 cells [1] is recorded as “remained attached with normal nuclei”. The sub-G1 population in the test with Jurkat T cells (12 h (Smith et al., 2002)) was 10%; in the test with Jurkat T cells (24 h (Smith et al., 2002)) it was 16%. Moreover, the “increase of Tyr-182 phosphorylated p38 protein” value in the test on p38 MAP kinase (50 μM, 2 h) was found to be 3 fold. In addition, the “increase of Tyr-182 phosphorylated p38 protein (maximum)” value in the test on p38 MAP kinase (50 μM, 6 h) is reported as ~9 fold. Moreover, the “levels of total p38 protein” value with p38 MAP kinase (50 μM, up to 12 hours) is given as “remained relatively unchanged”. Besides, the “normalized increase in phosphorylation of p38 over control” value in the test with p38 MAP kinase (FIG. 8D) came to 5.9 fold. The entries for the “cell growth (MTT)” value with WI-38 cells [2] (24 hours) and with VA-13 cells (6 or 24 hours) were “slightly inhibited the cell growth” and “completely inhibited growth”, respectively. Besides, the cell population entry in the test on WI-38 cells [2] (120 hours) is given as “doubled”. The viable cells result in the test with VA-13 cells (120 hours) is reported as “no viable VA-13 cells”.

Values taken from patent US7635693B2, “Methods for preventing and treating cancer using N-thiolated β-lactam compounds and analogs thereof” (University of South Florida, priority 2002, dated 2009).
